Where two headings read alike, the source gives them in different places.
Tests used:
[1] = system: Key Grass and Sedge Weeds as well as Grass Crops; test: Post-emergent Test II herbicidal activity (Table 6); assay type: in vivo; conditions: post-emergence, 336 h; for pest or weed control at 70 g/ha: 70 g ai/ha; for pest or weed control at 140 g/ha: 140 g ai/ha
Summary of the method: (§1)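 Percent injury, 0 (none) to 100 (complete kill), was judged visually 14 d after spraying young plants at the first or second true leaf stage with compound in an acetone/DMSO aqueous carrier at 187 L/ha. Plants were kept in a greenhouse at 23–29 °C by day.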

[2] = system: Key Broadleaf Weed and Crop Species; test: Post-emergent Test II herbicidal activity (Table 5); assay type: in vivo; conditions: post-emergence, 336 h, 14 days after application; for pest or weed control at 70 g/ha: application rate 70 g ai/ha; for pest or weed control at 140 g/ha: application rate 140 g ai/ha
Summary of the method: as §1

[3] = CYPES: yellow nutsedge (Cyperus esculentus), read-out: Visual Growth Reduction (%) 14 Days After Application, CYPES
[4] = DIGSA: crabgrass (Digitaria sanguinalis), read-out: Visual Growth Reduction (%) 14 Days After Application, DIGSA
[5] = ECHCG: barnyardgrass (Echinochloa crus-galli), read-out: Visual Growth Reduction (%) 14 Days After Application, ECHCG
[6] = ORYSA: rice (Oryza sativa), crop, read-out: Visual Growth Reduction (%) 14 Days After Application, ORYSA
[7] = SETFA: giant foxtail (Setaria faberi), read-out: Visual Growth Reduction (%) 14 Days After Application, SETFA
[8] = SORVU: grain sorghum (Sorghum vulgare), read-out: Visual Growth Reduction (%) 14 Days After Application, SORVU
[9] = TRZSS (wheat, Triticum aestivum), crop, read-out: Visual Growth Reduction (%) 14 Days After Application, TRZSS
[10] = ZEAMX: maize, corn (Zea mays), crop, read-out: Visual Growth Reduction (%) 14 Days After Application, ZEAMX
[11] = ABUTH: velvetleaf (Abutilon theophrasti), read-out: Visual Growth Reduction (%) 14 Days After Application, ABUTH
[12] = AMARE: redroot pigweed (Amaranthus retroflexus), read-out: Visual Growth Reduction (%) 14 Days After Application, AMARE
[13] = BRSNN: oilseed-rape, canola (Brassica napus), read-out: Visual Growth Reduction (%) 14 Days After Application, BRSNN
[14] = CHEAL: lambsquarters (Chenopodium album), read-out: Visual Growth Reduction (%) 14 Days After Application, CHEAL
[15] = EPHHL: wild poinsettia (Euphorbia heterophylla), read-out: Visual Growth Reduction (%) 14 Days After Application, EPHHL
[16] = HELAN: sunflower (Helianthus annuus), read-out: Visual Growth Reduction (%) 14 Days After Application, HELAN
[17] = VIOTR: wild pansy (Viola tricolor), read-out: Visual Growth Reduction (%) 14 Days After Application, VIOTR

| SMILES | pest or weed control at 70 g/ha [1, 3] [%] | pest or weed control at 140 g/ha [1, 3] [%] | pest or weed control at 70 g/ha [1, 4] [%] | pest or weed control at 140 g/ha [1, 4] [%] | pest or weed control at 70 g/ha [1, 5] [%] | pest or weed control at 140 g/ha [1, 5] [%] | pest or weed control at 70 g/ha [1, 6] [%] | pest or weed control at 140 g/ha [1, 6] [%] | pest or weed control at 70 g/ha [1, 7] [%] | pest or weed control at 140 g/ha [1, 7] [%] | pest or weed control at 70 g/ha [1, 8] [%] | pest or weed control at 140 g/ha [1, 8] [%] | pest or weed control at 70 g/ha [1, 9] [%] | pest or weed control at 140 g/ha [1, 9] [%] | pest or weed control at 70 g/ha [1, 10] [%] | pest or weed control at 140 g/ha [1, 10] [%] | pest or weed control at 70 g/ha [2, 11] [%] | pest or weed control at 140 g/ha [2, 11] [%] | pest or weed control at 70 g/ha [2, 12] [%] | pest or weed control at 140 g/ha [2, 12] [%] | other results |
| --- | --- | --- | --- | --- | --- | --- | --- | --- | --- | --- | --- | --- | --- | --- | --- | --- | --- | --- | --- | --- | --- |
| C#Cc1ccc(-c2nc(C(=O)OC)c(Cl)c(N)c2F)cc1F [Compound 133, methyl 4-amino-3-chloro-6-(4-ethynyl-3-fluorophenyl)-5-fluoropicolinate] | 30 to 44 | 45 to 59 | 0 to 29 | 60 to 74 | 0 to 29 | 60 to 74 | 0 to 29 | 0 to 29 | 45 to 59 | 75 to 84 | 60 to 74 | 75 to 84 | 30 to 44 | 30 to 44 | 95 to 100 | 95 to 100 | 85 to 94 | 95 to 100 | 75 to 84 | 75 to 84 | pest or weed control at 70 g/ha [2, 13]: 75 to 84%; pest or weed control at 140 g/ha [2, 13]: 95 to 100%; pest or weed control at 70 g/ha [2, 14]: 95 to 100%; pest or weed control at 140 g/ha [2, 14]: 95 to 100%; pest or weed control at 70 g/ha [2, 15]: 85 to 94%; pest or weed control at 140 g/ha [2, 15]: 95 to 100%; pest or weed control at 70 g/ha [2, 16]: 95 to 100%; pest or weed control at 140 g/ha [2, 16]: 95 to 100%; pest or weed control at 70 g/ha [2, 17]: 0 to 29%; pest or weed control at 140 g/ha [2, 17]: 30 to 44%; melting point: 141 to 143 °C |
| Nc1c(F)c(-c2ccc(C(F)(F)F)c(F)c2)nc(C(=O)O)c1Cl [Compound 134] | 95 to 100 | 95 to 100 | 75 to 84 | 85 to 94 | 95 to 100 | 95 to 100 | 45 to 59 | 45 to 59 | 95 to 100 | 95 to 100 | 85 to 94 | 85 to 94 | 60 to 74 | 75 to 84 | 45 to 59 | 60 to 74 | 85 to 94 | 85 to 94 | 85 to 94 | 95 to 100 | pest or weed control at 70 g/ha [2, 13]: 95 to 100%; pest or weed control at 140 g/ha [2, 13]: 95 to 100%; pest or weed control at 70 g/ha [2, 14]: 95 to 100%; pest or weed control at 140 g/ha [2, 14]: 95 to 100%; pest or weed control at 70 g/ha [2, 15]: 95 to 100%; pest or weed control at 140 g/ha [2, 15]: 95 to 100%; pest or weed control at 70 g/ha [2, 16]: 95 to 100%; pest or weed control at 140 g/ha [2, 16]: 95 to 100%; pest or weed control at 70 g/ha [2, 17]: 95 to 100%; pest or weed control at 140 g/ha [2, 17]: 95 to 100%; melting point: 124 to 126 °C |
| Nc1c(F)c(-c2ccc(I)c(F)c2F)nc(C(=O)O)c1Cl [Compound 141, 4-amino-3-chloro-6-(2,3-difluoro-4-iodophenyl)-5-fluoropicolinic acid] | 0 to 29 | 95 to 100 | 75 to 84 | 75 to 84 | 85 to 94 | 95 to 100 | 0 to 29 | 0 to 29 | 75 to 84 | 95 to 100 | 85 to 94 | 85 to 94 | 60 to 74 | 60 to 74 | 95 to 100 | 95 to 100 | 85 to 94 | 85 to 94 | 95 to 100 | 95 to 100 | pest or weed control at 70 g/ha [2, 13]: 95 to 100%; pest or weed control at 140 g/ha [2, 13]: 95 to 100%; pest or weed control at 70 g/ha [2, 14]: 85 to 94%; pest or weed control at 140 g/ha [2, 14]: 85 to 94%; pest or weed control at 70 g/ha [2, 15]: 95 to 100%; pest or weed control at 140 g/ha [2, 15]: 95 to 100%; pest or weed control at 70 g/ha [2, 16]: 95 to 100%; pest or weed control at 140 g/ha [2, 16]: 95 to 100%; pest or weed control at 70 g/ha [2, 17]: 95 to 100%; pest or weed control at 140 g/ha [2, 17]: 95 to 100%; melting point: 155 to 157 °C |

Source: US9113629B2, “4-amino-6-(4-substituted-phenyl)-picolinates and 6-amino-2-(4-substituted-phenyl)-pyrimidine-4-carboxylates and their use as herbicides” (DOW AGROSCIENCES LLC, priority 2013, dated 2015)
